From patent US6486166B1, “Suppression of cyclin kinase 2 activity for prevention and treatment of DNA viral infections” (Board of Regents, The University of Texas, priority 1997, dated 2002)
Entries after “also recorded” stand apart in the source; their conditions may differ.

Columns and labels:
[1] = tested on: HCMV-infected subconfluent LU cells; experiment: cell cycle distribution (DNA content by flow cytometry) after HCMV infection of subconfluent LU cells with PAA; assay type: cell-based, human; settings: for Percent Cells in phase G0/G1 / Percent Cells in phase G2/M / Percent Cells in phase S: HCMV 5 PFU/cell + PAA 100 μg/ml
human lung fibroblasts = settings: 100 μg/ml (0.75 mM); cited from earlier work
non-infected LU cells [2] = settings: human, 15 μM
HCMV [3] = experiment: HCMV DNA abundance in infected LU cells by slot blot hybridization; assay type: cell-based, Human cytomegalovirus strain AD169; settings: density-arrested LU cells, 72 hr post-infection
HCMV [4] = experiment: infectious HCMV yield by plaque assay; assay type: cell-based, Human cytomegalovirus strain AD169
[5] = tolerated dose in animals; assay type: in vivo; settings: printed 'tolerated by rate'
Text: The preferred dosage of inhibitor of cyclin E/Cdk2 activity in a parenteral administration will vary, depending upon the extent of the virus infection, the severity of the symptoms associated with the infection and patient age, weight and medical history. The number of administrations of the parenteral composition will also vary according to the response of the individual patient to the treatment. In one exemplary application. the dosage of inhibitor of cyclin E/Cdk2 activity would vary with the type of disease and the route of administration. Further studies with animal models of infection will completely define projected doses. […] Weaker Cdk2 inhibitors will be needed at higher concentrations, and stronger, at lower.

HCMV-infected LU cells = experiment: hematoxylin and eosin staining of HCMV-infected LU cells; settings: 15 μM; 96 hr after infection
non-infected LU cells [6] = experiment: effects on non-infected LU cells (morphology, flow cytometry, BrdU incorporation); settings: 15 μM for 96 hr

O=C(O)CP(=O)(O)O [PAA, phosphonoacetic acid]
Percent Cells in phase G0/G1 ([1]; 0 hours after treatment): 93.3 (1.2) percent
Percent Cells in phase G2/M ([1]; 0 hours after treatment): 5.1 (1.0) percent
Percent Cells in phase S ([1]; 0 hours after treatment): 1.6 (0.2) percent
Percent Cells in phase G0/G1 ([1]; 24 hours after treatment): 97.2 (0.4) percent
Percent Cells in phase G2/M ([1]; 24 hours after treatment): 1.9 (0.3) percent
Percent Cells in phase S ([1]; 24 hours after treatment): 0.9 (0.1) percent
Percent Cells in phase G0/G1 ([1]; 48 hours after treatment): 97.1 (0.8) percent
Percent Cells in phase G2/M ([1]; 48 hours after treatment): 1.3 (0.4) percent
Percent Cells in phase S ([1]; 48 hours after treatment): 1.5 (0.4) percent
Percent Cells in phase G0/G1 ([1]; 72 hours after treatment): 97.2 (0.3) percent
Percent Cells in phase G2/M ([1]; 72 hours after treatment): 0.9 (0.1) percent
Percent Cells in phase S ([1]; 72 hours after treatment): 1.9 (0.3) percent
increase in DNA content after HCMV infection ([1]; subconfluent LU cells infected in the presence of PAA): no detectable increase in DNA content
effect on viral DNA replication (human lung fibroblasts): blocks viral DNA replication

Cn1cnc2c(NCc3ccccc3)nc(NCCO)nc21 [olomoucine]
cells able to incorporate bromodeoxyuridine (BrdU) after removal of the inhibitor (non-infected LU cells [2]): more than 70%

CC[C@H](CO)Nc1nc(NCc2ccccc2)c2ncn(C(C)C)c2n1 [roscovitine]
HCMV DNA abundance reduced (HCMV [3]; 1 μM): ~50%
viral DNA abundance reduced (HCMV [3]; 10 μM): > 90%
infectious HCMV yields reduced (HCMV [4]; 2.5 μM, 96 hr post-infection): > 90%
inhibition at 10 µM (HCMV [4]; Human betaherpesvirus 5, 96 h, read-out: inhibition of infectious HCMV yields): > 99.9%
tolerated dose [5]: 3 µg/kg
morphology of HCMV-infected cells (HCMV-infected LU cells): clearly dying or dead
morphological changes of non-infected LU cells (non-infected LU cells [6]): no morphological changes; also recorded: did not present with any obvious morphological changes
cell cycle state of non-infected cells (non-infected LU cells [6]; flow cytometry): arrested in G0/G1 or G2/M phase
